Results as given in PubChem BioAssay AID179 (DTP/NCI, 2004).
Activity calls are given as the source filed them.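 The calls were made as follows: active = compounds giving half or more protection of infected cells from virus-caused growth loss, again on retest; inactive = the rest.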

System: CEM cells HIV-1 protection, formazan growth assay
Assay: NCI AIDS Antiviral Assay
Settings: for IC50: measured here: growth of uninfected CEM cells
Summary of the method: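 Protection of CEM cells against HIV-1 was scored from cell growth (soluble formazan) across five concentrations, with parallel uninfected cells. Lack of protection may reflect toxicity.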

SMILES | EC50 [µM] | IC50 [µM] | outcome
COc1cc(C2c3cc4c(cc3CCN2C(=O)c2ccccc2)OCO4)cc(OC)c1OC (stereo not given) | > 200 | 13.5 | –
CC(C)(C)[Si](C)(C)OCC1OC(n2ccc(=O)[nH]c2=O)C(O[Si](C)(C)C(C)(C)C)C12OC2C(=O)NO (stereo not given) | > 20 | 1.45 | –
CC1(C)CC(/C=C\c2coc3ccc(Cl)cc3c2=O)=C(C#N)C(=O)O1 | > 7.59 | > 7.59 | –
O=C(O)CCCC(=O)CCCC(=O)O | – | – | inactive
COC(=O)Nc1cn2cc(C(=O)c3cccs3)ccc2n1 | > 9.12 | 0.0331 | –
COC(=O)C1CC2CC1C1C2SC(F)(F)C1(F)F (stereo not given) | > 200 | > 200 | –
COC(=O)c1ccc2c(c1)CC1(C2)Cc2cc3c(c(C(=O)OC)c2C1)CCCC3 (stereo not given) | > 200 | > 200 | –
CC(C)(C)OC(=O)C1C(=O)C(C(=O)OC(C)(C)C)C23CCCCCCCCCCC12C(C(=O)OC(C)(C)C)C(=O)C3C(=O)OC(C)(C)C (stereo not given) | > 18.6 | > 18.6 | –
O=C1/C(=C\c2ccccc2Cl)CCCC/C1=C\c1ccccc1Cl | > 200 | 166 | –
CN=C(NCCCOC)c1ccc(NC(=O)c2ccc(C(=O)Nc3ccc(C(=NC)NCCCOC)cc3)c([N+](=O)[O-])c2)cc1 | > 200 | 19.1 | –
O=C(Nc1ccccc1C(=O)O)C(=O)C(C(=O)c1ccccc1-c1ccccc1)C1OC(=O)c2ccccc21 (stereo not given) | > 50.1 | 25.1 | –
CCC12C=CCN3CCC4(c5cc(C(c6ccc(OC)cc6)c6cc7ccccc7n6S(=O)(=O)c6ccccc6)c(OC)cc5N(C)C4C(O)(C(=O)OC)C1OC(C)=O)C32 (stereo not given) | > 8.71 | > 8.71 | –
CCc1nc2ccc(C(F)(F)F)cc2[nH]c1=O | > 200 | 105 | –
CCn1cc(C(=O)O)c(=O)c2ccc(-c3ccncc3)cc21 | – | – | inactive
CC(=O)OC(C(=O)[O][Sn]([CH3])([CH3])[CH3])c1ccccc1 (stereo not given) | – | – | inactive
O=C(NN1C(=O)C(Cl)C1c1c(O)ccc2ccccc12)c1ccccc1O (stereo not given) | > 67.6 | > 67.6 | –
CCCCCN1CCN(c2ncccn2)CC1 | > 200 | > 200 | –
CN(C)c1ccc(/C=C2/Oc3ccc(Cl)cc3C2=O)cc1 | > 4.79 | > 4.79 | –
COc1cccc(C2NC(=O)c3c(n[nH]c3N)S2)c1O (stereo not given) | > 200 | > 200 | –
COc1ccc(-n2c(C)nc3ccc(NC4OC(CO)C(O)C(O)C4O)cc3c2=O)cc1 (stereo not given) | > 200 | > 200 | –
NC(CSS(=O)(=O)O)=NCCCOCc1ccccc1 | > 200 | 112 | –
Cc1cc(=O)n2nc(CN3CCCCC3)sc2n1 | > 200 | 174 | –

SMILES | EC50 [µM] | IC50 [µM] | outcome
CC1=N/C(=C\c2cccc3ccccc23)C(=O)O1 | > 11.5 | > 11.5 | –
COC(=O)C1=COC2OC3C(C(C)O)C(=O)OC34C=CC1C24 (stereo not given) | > 589 | 63.1 | –
CN(C)c1ccc(C2=NC(=S)NC(c3cc(Cl)ccc3O)C2)cc1 (stereo not given) | > 200 | 30.2 | –
O=C(Nc1ccc(Cl)cc1Cl)C1C(=O)C(=O)N(c2ccc(Cl)cc2Cl)C1=O (stereo not given) | > 8.51 | > 8.51 | –
Cc1cc(N(CCC#N)CCC#N)ccc1/C=C(\NC(=O)/C=C/c1ccccc1)C(N)=O | – | – | inactive
CC(C)c1ccc(/C=C2\CSC/C(=C\c3ccc(C(C)C)cc3)C2=O)cc1 | > 200 | 123 | –
CC/C(SC)=[N+](\C)[O-] | > 955 | 174 | –
c1ccc(Cc2nc3ccccc3[nH]2)cc1 | > 34.7 | > 34.7 | –
CNC(C)C#N (stereo not given) | – | – | inactive
O=c1c2c([nH]c3nccn13)CCCC2 | > 200 | > 200 | –
CCCCCCCCCCCCCCCC(=O)OCC(COP(=O)(O)OCCNC(=O)CCSSc1ccccn1)OC(=O)CCCCCCCCCCCCCCC (stereo not given) | > 50.1 | 37.2 | –
CC1=C/C(=C(\c2ccc(N(C)C)cc2)c2ccc([N+](C)(C)C)cc2)C=CC1=[N+](C)C | – | – | inactive
O=C(Nc1ccc2c(O)cc(S(=O)(=O)O)cc2c1)Nc1ccc2c(O)c(N=Nc3ccc4cc(S(=O)(=O)O)ccc4c3)c(S(=O)(=O)O)cc2c1 | – | – | active
C=CC(=O)C#Cc1cnc(OC)nc1OC | > 200 | 1.1 | –
O=C(O)C1C(C(=O)O)C2C=CC1C21CCCC1 (stereo not given) | > 380 | > 380 | –
Nc1cc(N2CCOCC2)nc(=O)n1-c1ccc(Cl)cc1 | > 200 | > 200 | –
CC(=C(C(=O)O)C(=O)O)c1cc(-c2cccs2)cc(-c2ccc(Cl)cc2)c1O | > 200 | 12.3 | –
O=C(OCc1ccccc1)c1ccccc1-c1c2ccc(=O)cc-2oc2cc(OCc3ccccc3)ccc12 | > 5.13 | > 5.13 | –
N#Cc1cccc2c1Sc1ccccc1N2 | > 200 | 12 | –
Cn1cc(NC(=O)c2nc(NC(=O)c3nc(NC(=O)c4ccc(C(=O)Nc5cn(C)c(C(=O)Nc6cn(C)c(C(=O)Nc7cn(C)c(C(=O)NCCC(=N)N)n7)n6)n5)nc4)cn3C)cn2C)nc1C(=O)NCCC(=N)N | > 50.1 | 1.17 | –
Cc1cc(C(=O)CCCCOc2ccc(C3=NCCO3)cc2)c(C)n1C | – | – | inactive
O=C([O-])C(F)(F)F.[C-]#[O+].[C-]#[O+].[C-]#[O+].[C-]#[O+].[C-]#[O+].[Mn] | > 813 | 44.7 | –

SMILES | EC50 [µM] | IC50 [µM] | outcome
O=C(Nc1ccc(Cl)cc1Cl)c1c/c(=N\O)c2ccc(O)cc2o1 | – | – | inactive
COC(=O)[C@]1(C)CCC[C@@]2(C)C1CC[C@]13C=C(C(C)C)[C@H](CC21)CC3(Cl)C#N (stereo not given in full) | > 200 | 37.2 | –
O=S(O)CCCCCSSc1ccc(Cl)cc1 | – | – | inactive
CCOC(=O)Cc1[nH]c(C(=O)c2ccccc2)cc1C(=O)c1ccccc1 | > 200 | 30.2 | –
Cc1cnc2c(ccc3c(C)c(C)cnc32)c1C.Cc1cnc2c(ccc3c(C)c(C)cnc32)c1C.O=C1OC(C(O)C[O-])C(O)=C1O.[Cu+] | > 25.1 | 0.912 | –
Cc1cn(C2C[C@@H](/[N+]([O-])=C\c3ccccc3)C(CO[Si](C)(C)C(C)(C)C)O2)c(=O)[nH]c1=O (stereo not given in full) | > 200 | 24.5 | –
Cc1ccc(S(=O)(=O)OCCOCCOCCOCCOCCOS(=O)(=O)c2ccc(C)cc2)cc1 | – | – | inactive
COc1cccc2c1[C@]1(O)C(O)CCCC21 (stereo not given in full) | > 200 | > 200 | –
O=C(O)CCCCCCCCCCCCl | > 200 | 91.2 | –
CN(CC1NCCCC1O)C12CC3CC(CC(C3)C1)C2 (stereo not given) | > 891 | > 891 | –
N#CNC(N)=NC1=CC(=O)C(=O)c2ccccc21 | > 30.2 | 17.4 | –
OCC1C(O)C(O)[C@@H]2SCCN12 (stereo not given in full) | > 200 | > 200 | –
O=C(Cn1c(=O)oc2ccc(C(=O)c3ccccc3Cl)cc21)c1ccc([N+](=O)[O-])cc1 | > 200 | 17 | –
COC(=O)[C@@]12C=CC(=O)[C@H]3C[C@@H](C(C(C)C)C1)[C@]32OC (stereo not given in full) | – | – | inactive
Cc1ccc(SSc2ccc([N+](=O)[O-])cc2[N+](=O)[O-])cc1 | > 200 | 9.12 | –
CCOC(=O)c1cc2c(cn1)[nH]c1cccc(N)c12 | > 263 | > 263 | –
CCCCCCCCCCCCC(=O)NC1=C(O)c2ccccc2C(=O)C1=O | – | – | inactive
O=C1/C(=C/c2ccc(O)c(O)c2)CC/C1=C\c1ccc(O)c(O)c1 | > 200 | 10.7 | –
C[C@]12CC[C@@H]3c4ccc(OS(=O)(=O)O)cc4CC[C@H]3[C@@H]1CCC2=O | – | – | inactive
COC(=O)CCCC=C(c1cc(C)c(OC)c(Br)c1)c1cc(C)c(OC)c(Br)c1 | > 200 | 39.8 | –
CCOC(OCC)[C@@H]1C[C@@H]2N(O[C@H](OC3CCCC3(c3ccccc3)c3ccccc3)[C@H](OC(C)=O)[C@@]2(CC)Cc2ccc(OC)c(OC)c2)O1 (stereo not given in full) | > 200 | > 200 | –
COC(=O)C(/C(=N/N)C(=O)Nc1cc(Cl)ccc1Cl)c1nc2ccc([N+](=O)[O-])cc2[nH]c1=O (stereo not given) | > 138 | > 138 | –

SMILES | EC50 [µM] | IC50 [µM] | outcome
Cc1cc(N(CCC#N)CCC#N)ccc1/C=C(\NC(=O)/C=C/c1ccccc1)NC(=O)Nc1ccc(Cl)cc1 | – | – | inactive
O=C(c1ccccc1)N1CCCCC(Cl)C1=O (stereo not given) | > 1000 | > 1000 | –
CN(/N=C/c1ccccc1O)c1ccc2ccccc2n1 | > 200 | 126 | –
O=S(=O)(NCCO)c1cc[c]([Sb](=[O])([OH])[OH])cc1 | > 200 | > 200 | –
CCCCCCN1CCc2c(C)c(C#N)c3nc4ccccc4n3c21 | > 100 | 17.8 | –
NC(CSSCC(N)C(=O)O)C(=O)O (stereo not given) | > 200 | > 200 | –
O=c1ccn(Cc2ccccc2)c(=S)[nH]1 | > 200 | > 200 | –
COCCN1C2=CCCCC2=Nc2c(N)nc(N)nc21 | – | – | inactive
O=C(OC12CC3CC(CC(C3)C1)C2)c1ccc(NCc2cc(O)ccc2O)cc1 | > 20 | 0.955 | –
COC(=N)/C(C#N)=N/C1OCC(O)C(O)C1O (stereo not given) | – | – | inactive
c1ccc(CC2COC(c3cccs3)=N2)cc1 (stereo not given) | > 200 | 126 | –
O=C(Nc1cccc(C(F)(F)F)c1)C(=O)C(C(=O)c1ccc(Cl)c(Cl)c1)C1OC(=O)c2ccccc21 (stereo not given) | > 158 | 13.8 | –
N#Cc1c(=O)c2cccnc2n2c1[nH]c1ccccc12 | > 200 | > 200 | –
Cc1ccc(/C=N/Nc2ncccn2)s1 | > 200 | > 200 | –
COc1ccc(/C(=N\NC(=O)C(N)=O)C(c2ccc(OC)cc2)C2(O)C(=O)Nc3c(Cl)cccc32)cc1 (stereo not given) | > 18.2 | > 18.2 | –
CCOC(=O)/C=C/CC(C)n1cc(C)c(=O)[nH]c1=O (stereo not given) | – | – | inactive
O=C(O)C1OC(Oc2ccc3oc4ccccc4c(=O)c3c2)C(O)C(O)C1O (stereo not given) | > 174 | 145 | –
Nc1ccccc1Sc1ccccc1 | > 372 | 77.6 | –
COC(=O)CC1NC(=O)[C@]1(C)[C@H](C)O (stereo not given in full) | > 1230 | > 1230 | –
CC(=O)Oc1c(C(C)C)cc2c(c1OC(C)=O)C[C@@]1(C)OC(=O)CC(C)(C)C1(OC(C)=O)C=C2 (stereo not given in full) | – | – | inactive
COc1cc(OC)c2ssc3c(OC)cc(OC)c4ssc1c2-c43 | > 13.2 | > 13.2 | –
